Source: patent publication US12077503B2, “Substituted cyclic amides and their use as herbicides” (FMC CORPORATION, priority 2015, dated 2024)

Key:
Format in all cases: in vivo
[1] = system: barnyardgrass (Echinochloa crus-galli); assay: Test A preemergence; conditions: Echinochloa crus-galli, pre-emergence, 240 h
In short: (§1)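 Visual injury scores from 0, no effect, to 100, complete control, were assigned versus untreated controls roughly 10 d after treatment in the greenhouse. Test chemicals, formulated with surfactant in a non-phytotoxic solvent, were applied to planted seeds as a preemergence soil spray or postemergence to one- to two-leaf plants 2 to 10 cm tall, in loam–sand soil.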

[2] = system: ragweed (common ragweed, Ambrosia elatior); assay: Test A preemergence; conditions: Ambrosia artemisiifolia, pre-emergence, 240 h
In short: as §1

[3] = system: giant foxtail (Setaria faberii); assay: Test A preemergence; conditions: Setaria faberi, pre-emergence, 240 h
In short: as §1

[4] = system: pigweed (Amaranthus retroflexus); assay: Test A preemergence; conditions: Amaranthus retroflexus, pre-emergence, 240 h
[5] = system: ryegrass, Italian (Italian ryegrass, Lolium multiflorum); assay: Test A preemergence; conditions: Lolium multiflorum, pre-emergence, 240 h
In short: as §1

Kochia (Kochia scoparia) [6] = assay: Test A preemergence; conditions: Bassia scoparia, pre-emergence, 240 h
In short: as §1

[7] = system: blackgrass (Alopecurus myosuroides); assay: Test A postemergence; conditions: Alopecurus myosuroides, post-emergence, 240 h, read-out: Plant response rating, Blackgrass
In short: as §1

[8] = system: Galium (catchweed bedstraw, Galium aparine); assay: Test A postemergence; conditions: Galium, post-emergence, 240 h, read-out: Plant response rating, Galium
In short: as §1

corn (Zea mays) = assay: Test A postemergence; conditions: Zea mays, post-emergence, 240 h
In short: as §1

[9] = system: barnyardgrass (Echinochloa crus-galli); assay: Test A postemergence; conditions: Echinochloa crus-galli, post-emergence, 240 h, read-out: Plant response rating, Barnyardgrass
In short: as §1

[10] = system: ragweed (common ragweed, Ambrosia elatior); assay: Test A postemergence; conditions: Ambrosia artemisiifolia, post-emergence, 240 h, read-out: Plant response rating, Ragweed
In short: as §1

[11] = system: giant foxtail (Setaria faberii); assay: Test A postemergence; conditions: Setaria faberi, post-emergence, 240 h, read-out: Plant response rating, Foxtail, Giant
In short: as §1

[12] = system: pigweed (Amaranthus retroflexus); assay: Test A postemergence; conditions: Amaranthus retroflexus, post-emergence, 240 h, read-out: Plant response rating, Pigweed
In short: as §1

[13] = system: ryegrass, Italian (Italian ryegrass, Lolium multiflorum); assay: Test A postemergence; conditions: Lolium multiflorum, post-emergence, 240 h, read-out: Plant response rating, Ryegrass, Italian
In short: as §1

Kochia (Kochia scoparia) [14] = assay: Test A postemergence; conditions: Bassia scoparia, post-emergence, 240 h, read-out: Plant response rating, Kochia
In short: as §1

[15] = system: wheat (Triticum aestivum); assay: Test A postemergence; conditions: Triticum aestivum, post-emergence, 240 h, read-out: Plant response rating, Wheat
In short: as §1

rice (Oryra sativa) = assay: Test B flooded paddy test; conditions: Oryza sativa, 250 g ai/ha, Flood; 0 to 100 scale where 0 is no effect and 100 is complete control; read-out: Rice plant response rating
In short: (§2)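 Compound goes directly into floodwater once pots are flooded 3 cm above soil, targeting plants at two leaves; the water depth is then held for the test duration. Plants sit 13–15 d in a greenhouse and are rated visually, 100 denoting complete control.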

[16] = system: ducksalad (Heteranthera limosa); assay: Test B flooded paddy test; conditions: Heteranthera limosa, 250 g ai/ha, Flood; 0 to 100 scale where 0 is no effect and 100 is complete control; read-out: Ducksalad plant response rating
In short: as §2

[17] = system: barnyardgrass (Echinochloa crus-galli); assay: Test B flooded paddy test; conditions: Echinochloa crus-galli, 250 g ai/ha, Flood; 0 to 100 scale where 0 is no effect and 100 is complete control; read-out: Barnyardgrass plant response rating
In short: as §2

[18] = system: sedge, umbrella (small-flower umbrella sedge, Cyperus difformis); assay: Test B flooded paddy test; conditions: Cyperus difformis, 250 g ai/ha, Flood; 0 to 100 scale where 0 is no effect and 100 is complete control; read-out: Sedge, Umbrella plant response rating
In short: as §2

[19] = 125 g ai/ha, Postemergence, visual injury after approximately 10 d, 0 to 100 scale where 0 is no effect and 100 is complete control
[20] = 500 g ai/ha, postemergence, visual injury, 0 to 100 scale (0 no effect, 100 complete control), approx. 10 d

In the case of CN1CC[C@H](c2ccc(OC(F)(F)F)cc2)[C@@H](C(=O)Nc2cccc(Cl)c2F)C1=O [Compound 1002], the pest or weed control at 125 g/ha ([1]; 125 g ai/ha, Preemergence, visual injury rating after approximately 10 d, read-out: Barnyardgrass plant response rating (0 to 100 scale, 0 is no effect, 100 is complete control)) is reported as 20%, the pest or weed control at 500 g/ha ([1]; 500 g ai/ha, preemergence, visual injury rating about 10 d after treatment, 0 to 100 scale (0 no effect, 100 complete control), read-out: Barnyardgrass plant response rating) is reported as 70% and the pest or weed control at 125 g/ha ([2]; 125 g ai/ha, Preemergence, visual injury rating after approximately 10 d, read-out: Ragweed plant response rating (0 to 100 scale, 0 is no effect, 100 is complete control)) is reported as 0%. The pest or weed control at 500 g/ha ([2]; 500 g ai/ha, preemergence, visual injury rating about 10 d after treatment, 0 to 100 scale (0 no effect, 100 complete control), read-out: Ragweed plant response rating) was 0%, the pest or weed control at 125 g/ha ([3]; 125 g ai/ha, Preemergence, visual injury rating after approximately 10 d, read-out: Foxtail, Giant plant response rating (0 to 100 scale, 0 is no effect, 100 is complete control)) was 30% and the pest or weed control at 500 g/ha ([3]; 500 g ai/ha, preemergence, visual injury rating about 10 d after treatment, 0 to 100 scale (0 no effect, 100 complete control), read-out: Foxtail, Giant plant response rating) was 80%. It also gave a pest or weed control at 125 g/ha ([4]; 125 g ai/ha, Preemergence, visual injury rating after approximately 10 d, read-out: Pigweed plant response rating (0 to 100 scale, 0 is no effect, 100 is complete control)) of 20%, a pest or weed control at 500 g/ha ([4]; 500 g ai/ha, preemergence, visual injury rating about 10 d after treatment, 0 to 100 scale (0 no effect, 100 complete control), read-out: Pigweed plant response rating) of 50% and a pest or weed control at 125 g/ha ([5]; 125 g ai/ha, Preemergence, visual injury rating after approximately 10 d, read-out: Ryegrass, Italian plant response rating (0 to 100 scale, 0 is no effect, 100 is complete control)) of 0%. It also gave a pest or weed control at 500 g/ha ([5]; 500 g ai/ha, preemergence, visual injury rating about 10 d after treatment, 0 to 100 scale (0 no effect, 100 complete control), read-out: Ryegrass, Italian plant response rating) of 0%, a pest or weed control at 125 g/ha (Kochia (Kochia scoparia) [6]; 125 g ai/ha, Preemergence, visual injury rating after approximately 10 d, read-out: Kochia plant response rating (0 to 100 scale, 0 is no effect, 100 is complete control)) of 0% and a pest or weed control at 500 g/ha (Kochia (Kochia scoparia) [6]; 500 g ai/ha, preemergence, visual injury rating about 10 d after treatment, 0 to 100 scale (0 no effect, 100 complete control), read-out: Kochia plant response rating) of 0%. It also gave a pest or weed control at 125 g/ha [7, 19] of 0%, a pest or weed control at 500 g/ha [7, 20] of 0% and a pest or weed control at 125 g/ha [8, 19] of 0%. For the same compound, the pest or weed control at 500 g/ha [8, 20] was 0%, the Corn plant response rating (crop injury, 0 = no effect, 100 = complete kill) at 125 g/ha (corn (Zea mays); [19]) was 0% and the Corn plant response rating (crop injury, 0 = no effect, 100 = complete kill) at 500 g/ha (corn (Zea mays); [20]) was 0%. The pest or weed control at 125 g/ha [9, 19] was 50%, the pest or weed control at 500 g/ha [9, 20] was 90% and the pest or weed control at 125 g/ha [10, 19] was 0%. The pest or weed control at 500 g/ha [10, 20] was 0%, the pest or weed control at 125 g/ha [11, 19] was 0% and the pest or weed control at 500 g/ha [11, 20] was 50%. It also gave a pest or weed control at 125 g/ha [12, 19] of 0%, a pest or weed control at 500 g/ha [12, 20] of 0% and a pest or weed control at 125 g/ha [13, 19] of 0%. For the same compound, the pest or weed control at 500 g/ha [13, 20] was 0%, the pest or weed control at 125 g/ha (Kochia (Kochia scoparia) [14]; [19]) was 0% and the pest or weed control at 500 g/ha (Kochia (Kochia scoparia) [14]; [20]) was 40%. For the same compound, the plant injury at 125 g/ha [15, 19] was 0%, the plant injury at 500 g/ha [15, 20] was 0% and the pest or weed control at 250 g/ha (rice (Oryra sativa)) was 0%. For the same compound, the pest or weed control at 250 g/ha [16] was 60%, the pest or weed control at 250 g/ha [17] was 0% and the pest or weed control at 250 g/ha [18] was 0%.
